Measured values from US11976280B2, “SMAC/Diablo inhibitors useful for treating cancer” (THE NATIONAL INSTITUTE FOR BIOTECHNOLOGY IN THE NEGEV LTD., priority 2017, dated 2024).
Non-standard residues stand in square brackets, D forms with d. No end group written: not given here. Dmt = Cc1cc(O)cc(C)c1C[C@H](N)C(=O)O; Orn = NCCC[C@H](N)C(=O)O; d = 2'-deoxy (DNA); m = 2'-O-methyl; r = 2'-OH (RNA)

Tests used:
SMAC/Diablo = biological target: T1, SMAC/Diablo (Homo sapiens, UniProt Q9NR28); assay: Peptide array after pre-incubation of SMAC/Diablo with free peptide; type: binding; settings: for SMAC/Diablo interaction with the corresponding array-bound peptide: SMAC 0.8 μM pre-incubated with free peptide 2.4 μM
T1 sequence (Q9NR28 22-239): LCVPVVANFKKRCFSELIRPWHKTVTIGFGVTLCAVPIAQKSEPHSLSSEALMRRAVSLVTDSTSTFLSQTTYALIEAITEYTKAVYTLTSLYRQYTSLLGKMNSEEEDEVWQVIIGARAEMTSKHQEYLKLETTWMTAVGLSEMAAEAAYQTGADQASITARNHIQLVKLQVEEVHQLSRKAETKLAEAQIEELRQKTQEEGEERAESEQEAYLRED
Procedure: The glass-bound peptide array described hereinabove was used. SMAC/Diablo (0.8 μM) was incubated with each of the peptides—2C18 (2.4 μM) and 1G12 (2.4 μM) for 2 hr at 24° C. and then incubated with the peptide array for 4 h at 4° C. Then the slides were washed and SMAC/Diablo antibodies (1:2000) were added, followed by incubation with HRP-conjugated anti-mouse IgG after which chemiluminescent spots were detected. Corresponding glass-bound peptide array incubated overnight with 0.8 μM free SMAC/Diablo, blotted with the same concentration of SMAC/Diablo antibodies followed by incubation with HRP-conjugated anti-mouse IgG served as a control. […] This is indicated by the decreased intensity or disappearance of chemiluminescence in the peptide spot position compared to the control (FIG. 16 and FIG. 17, respectively). Moreover, pre-incubation of SMAC/Diablo with peptide 2C18 decreased SMAC/Diablo interaction with the array-bound peptides 1M17 and 1N23 derived from Nuclear receptor subfamily 4 group A member 1 Protein (NR4A1) and peptide 1K20 derived from TNF receptor associated factor 2 Protein (TRAF2) (FIG. 16B, eliminated spots are circled).

A549 cells [1] = assay: SRB cell growth assay, si-hSMAC B-D and 2′-O-Me modified siRNAs; type: cell-based, human; settings: 30 and 50 nM
Procedure: The siRNAs were synthesized by Genepharma (Suzhou, China). Cells were seeded (150,000 cells/well) on 6-well culture dishes to 40-60% confluence and transfected with 10-100 nM si-NT or si-hSMAC/Diablo using the JetPRIME transfection reagent (Illkirch, France), according to the manufacturers' instructions.
Twenty-four hours post-transfection with si-NT or si-hSMAC, cells (10,000/well) were counted and seeded in 96-well plates. After additional 48, 72 or 96 hours, the cells were washed with PBS, fixed with 10% trichloroacetic acid, and stained with SRB. SRB was extracted from the cells using 100 mM Tris base and absorbance at 510 nm was determined using an Infinite M1000 plate reader (Tecan, Männedorf, Switzerland).
si-hSMAC-A and si-hSMAC-B were modified by 2′-O methylation (2′-O Me) to form si-hSMAC-A1, si-hSMAC-A2 si-hSMAC-A3 si-hSMAC-A4 si-hSMAC-B1 si-hSMAC-B2 si-hSMAC-B3 and si-hSMAC-B4 described hereinabove. The effect of these modified forms on SMAC/Diablo expression and on cell proliferation was examined using 30 and 50 nM of each inhibitory RNA molecule in the lung cancer line A549.

A549 cells [2] = assay: SRB cell growth of A549 cells treated with peptide conjugates (Table 8); type: cell-based, human; settings: 48 h in serum (10%) medium or 24 h serum-free, mean±SD (n=3)
Procedure: A549 cells were seeded in 96-well plate (5000 cells/well). After 24 h cells were incubated with each of the examined peptides at a concentration of 5, 10, or 30 μM for 48 h in a serum (10%) containing medium or for 24 h in a serum-free medium. Then, cells were washed with PBS, fixed with 10% trichloroacetic acid, and analyzed for cell growth using the SRB method described herein above. Cell growth with no addition of a peptide was taken as a control (100% cell growth). Table 8 presents the cell growth in the presence of the peptide as % of control. Results are the mean±SD (n=3).

[3] = pre-incubation with free peptide 2.4 μM

| Substance | reducing cell proliferation, ranking among modified molecules (A549 cells [1]) | Cell growth, % of control (A549 cells [2]; peptide 5 μM) | Cell growth, % of control (A549 cells [2]; peptide 10 μM) | Cell growth, % of control (A549 cells [2]; peptide 30 μM) | also measured |
| --- | --- | --- | --- | --- | --- |
| VRFITKIWHPNISSVTGAICLDILK [2C18] |  |  |  |  | SMAC/Diablo interaction with the corresponding array-bound peptide (SMAC/Diablo): significantly decreased or even prevented; SMAC/Diablo interaction with array-bound peptides 1M17, 1N23 (NR4A1) and 1K20 (TRAF2) (SMAC/Diablo; [3]): decreased |
| si-hSMAC-B2: si-hSMAC-B with 2′-O-Me at sense positions 4, 9, 13, 17 (SEQ ID NO:38) and antisense 6, 12, 18 (SEQ ID NO:39) (sense GCAGAUCAGGCCUCUAUAATT; antisense UUAUAGAGGCCUGAUCUGCTT; sense: sugars from the 5' end rrrmrrrrmrrrmrrrmrrdd, backbone not given here; antisense: sugars from the 5' end rrrrrmrrrrrmrrrrrmrdd, backbone not given here) | most active |  |  |  |  |
| 1H13-mtCPP-NH2: peptide conjugate targeted to mitochondria, SEQ ID NO:73 (SGCAFLSVKKQFEELTLGEFLKLD[dR][Dmt][Orn]F-NH2) |  | 85 ± 0.022 % of control | 60 ± 0.018 % of control | 49 ± 0.014 % of control |  |
| si-hSMAC-B3: si-hSMAC-B with 2′-O-Me at sense positions 6, 10, 15 (SEQ ID NO:40) and antisense 2, 9, 17 (SEQ ID NO:41) (sense GCAGAUCAGGCCUCUAUAATT; antisense UUAUAGAGGCCUGAUCUGCTT; sense: sugars from the 5' end rrrrrmrrrmrrrrmrrrrdd, backbone not given here; antisense: sugars from the 5' end rmrrrrrrmrrrrrrrmrrdd, backbone not given here) | most active |  |  |  |  |
| si-hSMAC-A1: si-hSMAC-A with 2′-O-Me at sense positions 5, 10, 16, 21 (SEQ ID NO:28) and antisense 6, 12, 19 (SEQ ID NO:29) (sense AAGCGGUGUUUCUCAGAAUUGTT; antisense AACAAUUCUGAGAAACCCGCTT; sense: sugars from the 5' end rrrrmrrrrmrrrrrmrrrrmdd, backbone not given here; antisense: sugars from the 5' end rrrrrmrrrrrmrrrrrrmrdd, backbone not given here) | most active in reducing cell proliferation |  |  |  |  |
| 1H13-nuCPP: peptide conjugate targeted to nucleus, SEQ ID NO:69 (SGCAFLSVKKQFEELTLGEFLKLDR[dR]RK) |  | 92 ± 0.018 % of control | 57 ± 0.013 % of control | 30 ± 0.009 % of control |  |
| ANT-2C18 (MRQIKIWFQNRRMKWKVRFITKIWHPNISSVTGAICLDILK) |  | 127 ± 0.006 % of control | 145 ± 0.0162 % of control | 97 ± 0.011 % of control |  |
| nuCPP-1G12: peptide conjugate targeted to nucleus, SEQ ID NO:71 (R[dR]RKLIRKNRMALFQQLTCVLPILDNLLK) |  | 96 ± 0.012 % of control | 72 ± 0.01 % of control | 66 ± 0.009 % of control |  |
| si-hSMAC-A4: si-hSMAC-A with 2′-O-Me at sense positions 3, 6, 11, 21 (SEQ ID NO:34) and antisense 6, 19 (SEQ ID NO:35) (sense AAGCGGUGUUUCUCAGAAUUGTT; antisense AACAAUUCUGAGAAACCCGCTT; sense: sugars from the 5' end rrmrrmrrrrmrrrrrrrrrmdd, backbone not given here; antisense: sugars from the 5' end rrrrrmrrrrrrrrrrrrmrdd, backbone not given here) | most active in reducing cell proliferation |  |  |  |  |
| TF-1G12: peptide conjugate targeted to cytosol, SEQ ID NO:76 (HAIYPRLIRKNRMALFQQLTCVLPILDNLLK; not fully specified) |  | 99 ± 0.004 % of control | 98 ± 0.005 % of control | 99 ± 0.005 % of control |  |
| LIRKNRMALFQQLTCVLPILDNLLK [1G12] |  |  |  |  | SMAC/Diablo interaction with the corresponding array-bound peptide (SMAC/Diablo): significantly decreased or even prevented; SMAC/Diablo interaction with array-bound 1G12, 1G13, 1H13 (BIRC5) and 2D9 (MAML2) (SMAC/Diablo; [3]): significantly reduced |
| mtCPP-2C18: peptide conjugate targeted to mitochondria, SEQ ID NO:74 ([dR][Dmt][Orn]FVRFITKIWHPNISSVTGAICLDILK) |  | 89 ± 0.005 % of control | 74 ± 0.004 % of control | 59 ± 0.004 % of control |  |
| 1G12-nuCPP: peptide conjugate targeted to nucleus, SEQ ID NO:70 (LIRKNRMALFQQLTCVLPILDNLLKR[dR]RK) |  | 109 ± 0.013 % of control | 76 ± 0.024 % of control | 39 ± 0.013 % of control |  |
